How the values were obtained:
[1] = system: STZ-induced neuropathic pain model; assay: STZ model of diabetic neuropathy, von Frey; type: in vivo, male Sprague-Dawley rats; conditions: 50 mg on left foot, 30 minutes post-dosing
Text: This study evaluates the efficacy of a pharmaceutical composition of the invention in the STZ-induced neuropathic pain model in male Sprague-Dawley rats, following acute dosing, as compared with a 5% (w/v) topical Lidocaine (Xylocaine®) and a 1.16% (w/v) topical Diclofenac (Voltaren®). A rodent model of painful peripheral diabetic neuropathy (PDN) that mimics human condition was created by inducing a diabetic state in the rat through the ablation of the insulin producing pancreatic beta cells. A single streptozotocin (STZ) injection destroys beta cells in rats and produces a diabetic state that over time progresses to painful Peripheral Diabetic Neuropathy (PDN).
Streptozotocin (STZ) was dissolved in citrate buffer (20 mM, pH 4.5) and administered at a dose of 60 mg/Kg, intraperitoneal, to induce pancreatic beta-cell death. Blood glucose level was measured once a week following injection, using the AccuSoft Blood Glucose Monitoring System. […] Hyperalgesia and allodynia, which are signs of diabetic neuropathic pain, were monitored using the von Frey test as described below. Von Frey measurements were recorded from both left and right paws. Only those with significant hyperalgesia as determined by reduced threshold, measured in grams, of paw withdrawal to the von Frey filament were enrolled in the study. […] During this time their health status was closely monitored.
The animals were randomly divided into 4 test groups (n=7 animals/group) including a vehicle control, a 5% (w/v) Lidocaine (Xylocaine®), a 1.16% (w/v) Diclofenac (Voltaren®), and a pharmaceutical composition with 4% (w/w) COMPOUND A. After baseline measurement, 50 mg of the test composition was applied on the entire left foot. […] The paw withdrawal thresholds of animals from mechanical tactile stimuli were measured using the Electrovonfrey anesthesiometer (Model 2290, IITC Life Science, Woodland Hills, Calif.). […] The force (g) required to elicit a crisp withdrawal response was recorded before dosing as a baseline measurement, and at 30 minutes post-dosing. […]

[2] = system: CCI-induced neuropathic pain model; assay: time course of efficacy in neuropathic pain model, Chronic Constriction Injury, von Frey; type: in vivo, Sprague-Dawley rats
Method: Neuropathic pain is characterized by spontaneous pain and stimulus-evoked allodynia and hyperalgesia. Pharmaceutical compositions of the invention were evaluated in Chronic Constriction Injury model using Sprague-Dawley rats as described below.
An approximately 3 cm incision was made through the skin and the fascia at the mid thigh level of a rat's left hind leg using a no. 10 scalpel blade. The left sciatic nerve was exposed via blunt dissection through the biceps femoris with care to minimize haemorrhagia. Four loose ligatures were tied along the sciatic nerve using four chromic gut sutures at intervals of 1 mm to 2 mm apart. The tension of the loose ligatures was tight enough to induce slight constriction of the sciatic nerve when viewed under a dissection microscope at a magnification of 4 fold. As sham controls, the right sciatic nerve was exposed and manipulated in the same manner as described above, except sutures were not tied onto the nerve. Antibacterial ointment was applied directly into the wound, and the muscle was closed using sterilized sutures. Betadine® was applied onto the muscle and its surroundings, followed by skin closure with surgical clips.
A painful neuropathy was allowed to develop for at least 14 days in the ipsilateral leg as determined by lower paw withdrawal thresholds to a mechanical stimulus. Only those with significant hyperalgesia, as determined by reduced threshold of paw withdrawal to the von Frey filament, measured in grams, were enrolled in the study.
The response thresholds of animals to tactile stimuli were measured using the Model 2290 Electrovonfrey anesthesiometer (IITC Life Science, Woodland Hills, Calif.). Animals were placed in an elevated Plexiglass enclosure set on a mire mesh surface. After 15 minutes of accommodation, a von Frey hair was applied perpendicularly to the plantar surface of the ipsilateral hind paws of the animals with sufficient force, measured in grams, to elicit a crisp response of the paw. The response indicated a withdrawal from the painful stimulus and constituted the efficacy endpoint. The force (in grams) required to elicit a crisp withdrawal response was recorded before dosing as a baseline measurement, and at multiple time points post-dosing.
Three days prior to baseline measurement, animals were anaesthetized under isoflurane and the whole of the ipsilateral hind legs, including the upper sciatic notch thigh area, ankle and foot, was shaved. The animals were then randomly assigned to one of 4 different test groups including a vehicle control group, a 5% (w/v) Lidocaine (Xylocaine®), and 2 pharmaceutical compositions of the invention comprising COMPOUND A at 4% (w/w) containing either 5% or 10% Transcutol® P. After baseline measurement, 100 mg of the test composition was applied on the entire shaved area. The animals were then placed in plastic tubes for at least 15 minutes, to prevent early removal/ingestion of drug. Subsequently, animals were placed in the Plexiglas enclosure 15 minutes before von Frey measurement at the respective time points. Von Frey withdrawal thresholds were measured as the mean of several independent determinations made within 1-2 minutes of each other on the affected paw of each animal at 0.5, 1 and 2 hours post dosing.

| Structure (SMILES) | paw withdrawal threshold of treated paw, CFB ([1]; 1.16% (w/v) topical) | paw withdrawal threshold, percent mean change from baseline (CFB) ([2]; 5% (w/v) topical, 100 mg applied, 0.5 hours post-dosing) | paw withdrawal threshold, CFB ([2]; 5% (w/v) topical, time points later than 0.5 hours post-dosing, p>0.05) | duration of analgesic effects post-dosing ([2]; 5% topical) | paw withdrawal threshold of treated paw, percent mean change from baseline (CFB) ([1]; 5% (w/v) topical) [%] |
| --- | --- | --- | --- | --- | --- |
| O=C(O)Cc1ccccc1Nc1c(Cl)cccc1Cl [Diclofenac] | No significant CFB | – | – | – | – |
| CCN(CC)CC(=O)Nc1c(C)cccc1C [Lidocaine, reference compound] | – | +23.1% | No significant changes | up to 0.5 hours | 25.9 |
